According to publication PMC12051620, “Molecular basis underlying the specificity of an antagonist AA92593 for mammalian melanopsins” (The Journal of Biological Chemistry, 2025):

Assays:
[1] = target: T1, mouse melanopsin F94^2.61C/S188^ECL2T/S269^6.52A mutant (Mus musculus, UniProt Q9QXZ9, F126C/S221T/S310A); experiment: GsX GloSensor assay with Gsα/q11; type: cell-based; conditions: 16.7 μM AA92593, COS-1 cells
T1 construct: expressed in transfected cells; host or cells: COS-1
Source text: (§1) The single substitutions F94^2.61C, S188^ECL2T, and S269^6.52A in mammalian melanopsins reduced the inhibitory effects of AA92593 (Figs. 2G and 3E). We suspected that the combination of these substitutions would further decrease the AA92593 effect. We thus introduced the triple substitutions F94^2.61C/S188^ECL2T/S269^6.52A into human and mouse melanopsins and examined the inhibitory effects of AA92593. In both mammalian melanopsins, the F94^2.61C/S188^ECL2T/S269^6.52A substitution reduced the inhibitory effect of AA92593 more than the single substitutions (∼63% and ∼35% reductions for human and mouse melanopsins, respectively) (Figs. 2, F and G, 3, D and E).
(§2) For GloSensor assay, opsins, GloSensor assay sensor (coded by pGlo-22F), and NanoBiT-tagged G proteins were transiently expressed in COS-1 cells (kindly provided from Dr David Farrens, Oregon Health and Science University) using PEI as described previously ([24], [52]). For the GsX GloSensor assay ([12], [13]), each well of a 96-well assay plate (Corning) was transfected with 50 ng opsin plasmid, 16.7 ng G protein plasmid, 50 ng pGlo-22F plasmid (Promega), and 500 ng PEI in 25 μl Opti-mem and 75 μl Dulbecco's modified Eagle's medium (D-MEM). […] For GFP-fluorescence microscopy, a 35-mm cell culture dish (IWAKI) was transfected with 2 μg melanopsin-GFP plasmid and 8 μg PEI in 400 μl Opti-mem and 1.2 ml D-MEM. […]

[2] = target: T2, human melanopsin F94^2.61C/S188^ECL2T/S269^6.52A mutant (Homo sapiens, UniProt Q9UHM6, F127C/S222T/S313A); experiment: GsX GloSensor assay with Gsα/q11; type: cell-based; conditions: 16.7 μM AA92593, COS-1 cells
T2 construct: expressed in transfected cells; host or cells: COS-1
Source text: as §1, §2

T2 sequence (Q9UHM6 1-384 F127C/S222T/S313A): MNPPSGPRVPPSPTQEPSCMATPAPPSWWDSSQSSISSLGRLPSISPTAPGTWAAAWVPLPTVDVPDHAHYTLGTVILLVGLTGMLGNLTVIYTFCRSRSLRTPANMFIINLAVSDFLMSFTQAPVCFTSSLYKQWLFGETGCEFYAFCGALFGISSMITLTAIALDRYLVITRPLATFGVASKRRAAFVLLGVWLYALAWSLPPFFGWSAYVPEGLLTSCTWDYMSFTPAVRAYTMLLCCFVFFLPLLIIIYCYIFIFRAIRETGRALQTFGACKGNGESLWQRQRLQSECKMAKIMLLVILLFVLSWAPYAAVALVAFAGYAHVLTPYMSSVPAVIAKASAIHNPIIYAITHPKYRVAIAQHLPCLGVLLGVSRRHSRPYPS
T1 sequence (Q9QXZ9 1-381 F126C/S221T/S310A): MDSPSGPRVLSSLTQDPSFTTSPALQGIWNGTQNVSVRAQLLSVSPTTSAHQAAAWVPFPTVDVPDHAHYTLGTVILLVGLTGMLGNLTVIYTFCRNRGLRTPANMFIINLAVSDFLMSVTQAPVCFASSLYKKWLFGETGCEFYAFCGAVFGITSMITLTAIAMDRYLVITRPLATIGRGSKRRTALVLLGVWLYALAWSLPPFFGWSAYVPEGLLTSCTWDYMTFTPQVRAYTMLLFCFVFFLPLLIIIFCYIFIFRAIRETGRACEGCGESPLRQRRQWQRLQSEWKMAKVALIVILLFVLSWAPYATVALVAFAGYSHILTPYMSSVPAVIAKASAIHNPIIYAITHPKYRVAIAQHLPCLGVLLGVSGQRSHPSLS

With `COc1ccc(S(=O)(=O)N2CCCCC2)cc1C` [AA92593] the “reduction of the inhibitory effect of AA92593 vs WT” value [1] was ~35% and the “reduction of the inhibitory effect of AA92593 vs WT” value [2] was ~63%.
